Source: ChEMBL document CHEMBL1124183, “Conformations of complexes between mitomycins and decanucleotides. 3. Sequence specificity, binding at C-10, and mitomycin analogues” (1988)

Species on record: Mus musculus
Test: Minimum effective dose (MED) of compound against P388 Leukemia in mice was determined
Assay type: functional
Settings: read-out: MED
`CO[C@@]12[C@H](COC(N)=O)C3=C(C(=O)C(C)=C(N)C3=O)N1C[C@@H]1N[C@@H]12` [MITOMYCIN] was tested, and the minimal effective dose was 0.2 mg/kg.
For `CO[C@@]12C(COC(N)=O)C3=C(C(=O)C(C)=C(NCCS)C3=O)N1CC1NC12` (some centres undefined), the minimal effective dose was 0.2 mg/kg.
`CO[C@@]12C(COC(N)=O)c3c(O)c(N=C4C=CC(=O)C=C4)c(C)c(O)c3N1CC1NC12` (some centres undefined) gave a minimal effective dose of 0.1 mg/kg.
`CO[C@@]12C(COC(N)=O)C3=C(C(=O)C(C)=C(NC=[N+](C)C)C3=O)N1CC1NC12` (some centres undefined) was tested, and the minimal effective dose was 0.05 mg/kg.
